This note sets out measurements from patent US11584742B2 (MASARYKOVA UNIVERZITA, priority 2018, dated 2023).

The assay addresses T1, MRE11 (Homo sapiens, UniProt P49959).
T1 sequence (P49959 1-708): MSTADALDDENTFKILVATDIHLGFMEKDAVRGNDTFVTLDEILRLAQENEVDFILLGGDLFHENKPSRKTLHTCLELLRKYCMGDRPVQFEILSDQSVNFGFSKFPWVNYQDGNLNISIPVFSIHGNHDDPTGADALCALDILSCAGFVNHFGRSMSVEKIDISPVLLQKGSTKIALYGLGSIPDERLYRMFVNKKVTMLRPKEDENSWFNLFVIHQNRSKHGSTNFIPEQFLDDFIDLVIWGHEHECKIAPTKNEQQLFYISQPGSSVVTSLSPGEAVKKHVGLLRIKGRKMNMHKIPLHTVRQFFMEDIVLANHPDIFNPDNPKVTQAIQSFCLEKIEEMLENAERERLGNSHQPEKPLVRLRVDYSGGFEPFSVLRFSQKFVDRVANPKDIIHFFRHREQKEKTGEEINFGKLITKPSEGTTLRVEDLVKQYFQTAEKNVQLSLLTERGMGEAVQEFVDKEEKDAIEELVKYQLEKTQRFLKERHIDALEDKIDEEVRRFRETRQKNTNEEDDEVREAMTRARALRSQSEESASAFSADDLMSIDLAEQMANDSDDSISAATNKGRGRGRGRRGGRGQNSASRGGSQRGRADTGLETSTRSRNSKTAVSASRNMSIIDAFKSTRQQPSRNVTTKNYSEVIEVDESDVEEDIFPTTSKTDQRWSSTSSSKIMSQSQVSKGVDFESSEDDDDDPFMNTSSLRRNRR
The assay is described as follows: HTS nuclease assay (cleavage of CY5/BBQ-quenched 5' overhang DNA substrate). It counts as biochemical. The conditions noted are these: in vitro HTS nuclease assay; 18 nM MRE11, 40 nM DNA substrate; analysis at t=4 h. As to the method:
DNA Substrate Preparation
The DNA substrate is prepared by mixing the oligonucleotides listed below in a 1:1 ratio to reach a final concentration of 6 μM in a buffer containing 50 mM Tris pH 7.5, 100 mM NaCl and 8 mM MgCl2.
This substrate is a 5′ overhang, which is a preferred substrate of MRE11. […] The fluorescence increases upon substrate cleavage by MRE11, when separation of the two labels occur.
The conditions of the assay are as follows:
Total reaction volume: 5 μL
DNA substrate concentration in the reaction: 40 nM
Inhibitor concentration range tested: 7 nM-50 μM
Each plate contains a series of high and low signal control wells, where no compound is added:
High signal: MRE11+DNA substrate
Low signal: DNA substrate only
These are used during data evaluation.
Two extra assay controls:
1) To check whether unwinding of DNA by the compounds alone occurs.
The DNA substrate [CY5+BBQ(650)] is mixed with the compounds with no protein present.
The CY5 single stranded oligo is mixed with the compounds with no protein present.
The layout of the plates is created by the in-house software (CZ-Openscreen Prague) and this information is transferred to the robotic HTS station.
The reaction is started by the addition of DNA and the reaction time is counted from that moment, including a 15 min delay. Ten timepoints are measured:
The assay data analysis was performed at t=4 h. This corresponds to the time when the reaction is close to its maximum.
The data analysis was performed using the in-house software to obtain IC50 for each compound.
`N#C/C(=C\c1ccc(O)c(O)c1)C(=O)Nc1nc(C(=O)c2ccccc2)cs1` [Preparative Example 261, (E)-N-(4-benzoylthiazol-2-yl)-2-cyano-3-(3,4-dihydroxyphenyl)acrylamide]: the IC50 (usually the concentration that inhibits the measured activity by half) was below 2 µM.
For `N#C/C(=C\c1cc(O)c(O)c(Br)c1)C(=O)Nc1nc(-c2ncc(N3CCOCC3)cc2F)cs1` [Preparative Example 272, (E)-3-(3-bromo-4,5-dihydroxyphenyl)-2-cyano-N-(4-(3-fluoro-5-morpholinopyridin-2-yl)thiazol-2-yl)acrylamide], the 50% inhibitory concentration (IC50) is below 2 µM.
Then `Cc1cc(/C=C(\C#N)C(=O)Nc2nc(-c3ccccn3)cs2)cc(C)c1O` [Preparative Example 248, (E)-2-cyano-3-(4-hydroxy-3,5-dimethylphenyl)-N-(4-(pyridin-2-yl)thiazol-2-yl)acrylamide], with 10 to 90 µM.
On to `N#C/C(=C\c1cc(Cl)c(O)c(Cl)c1)C(=O)Nc1nc(-c2ncccc2F)cs1` [Preparative Example 252, (E)-2-cyano-3-(3,5-dichloro-4-hydroxyphenyl)-N-(4-(3-fluoropyridin-2-yl)thiazol-2-yl)acrylamide], for which the half-maximal inhibitory concentration (IC50) is below 2 µM.
Then `N#C/C(=C\c1cc(Br)c(O)c(Br)c1)C(=O)Nc1nc(-c2ncc(N3CCOCC3)cc2F)cs1` [Preparative Example 271, (E)-2-cyano-3-(3,5-dibromo-4-hydroxyphenyl)-N-(4-(3-fluoro-5-morpholinopyridin-2-yl)thiazol-2-yl)acrylamide], with below 2 µM; and `N#C/C(=C\c1ccc(O)c(Br)c1)C(=O)Nc1nc(-c2ccccc2)cs1` [Preparative Example 202, (E)-3-(3-bromo-4-hydroxyphenyl)-2-cyano-N-(4-phenylthiazol-2-yl)acrylamide], with 2 to 10 µM; and `N#C/C(=C\c1cc(Cl)c(O)c(Cl)c1)C(=O)Nc1nc(Cc2ccccc2)cs1` [Preparative Example 275, (E)-N-(4-benzylthiazol-2-yl)-2-cyano-3-(3,5-dichloro-4-hydroxyphenyl)acrylamide], with 10 to 90 µM.
Then `COc1cc(/C=C(\C#N)C(=O)Nc2nc(-c3ccccc3)cs2)cc(C#N)c1O` [Preparative Example 268, (E)-2-cyano-3-(3-cyano-4-hydroxy-5-methoxyphenyl)-N-(4-phenylthiazol-2-yl)acrylamide], with 10 to 90 µM; and `N#C/C(=C\c1ccc(O)c(O)c1)C(=O)Nc1nc(Cc2ccccc2)cs1` [Preparative Example 273, (E)-N-(4-benzylthiazol-2-yl)-2-cyano-3-(3,4-dihydroxyphenyl)acrylamide], with below 2 µM; and `N#C/C(=C\c1cc(Br)c(O)c(Br)c1)C(=O)Nc1nc(-c2ccccn2)cs1` [Preparative Example 249, (E)-2-cyano-3-(3,5-dibromo-4-hydroxyphenyl)-N-(4-(pyridin-2-yl)thiazol-2-yl)acrylamide], with below 2 µM.
Then `N#C/C(=C\c1ccc(O)c(O)c1)C(=O)Nc1nc(-c2ccc(N3CCOCC3)nc2)cs1` [Preparative Example 265, (E)-2-cyano-3-(3,4-dihydroxyphenyl)-N-(4-(6-morpholinopyridin-3-yl)thiazol-2-yl)acrylamide], with 2 to 10 µM; and `N#C/C(=C\c1ccc(O)c(C(N)=O)c1)C(=O)Nc1nc(-c2ccccc2)cs1` [Preparative Example 255, (E)-5-(2-cyano-3-oxo-3-((4-phenylthiazol-2-yl)amino)prop-1-en-1-yl)-2-hydroxybenzamide], with 10 to 90 µM.
The molecule `N#C/C(=C\c1ccc(O)c(O)c1)C(=O)Nc1ncc(-c2cnccn2)s1` [Preparative Example 262, (E)-2-cyano-3-(3,4-dihydroxyphenyl)-N-(5-(pyrazin-2-yl)thiazol-2-yl)acrylamide] had a half-maximal inhibitory concentration (IC50) of 10 to 90 µM.
On to `N#C/C(=C\c1cc(Br)c(O)c(Br)c1)C(=O)Nc1nc(-c2ncccc2F)cs1` [Preparative Example 251, (E)-2-cyano-3-(3,5-dibromo-4-hydroxyphenyl)-N-(4-(3-fluoropyridin-2-yl)thiazol-2-yl)acrylamide], for which the IC50 is below 2 µM.
